The record followed here is patent US11672786B2, “Methods of treating diseases associated with repeat instability” (The Hospital for Sick Children, priority 2016, dated 2023).

Values joined by “and” are separate entries in the source; they are usually repeats but may differ in a detail not shown here. Equal entries are not always repeated.

One assay has as its system HT1080-(CAG)850 cells. Briefly: small-pool PCR repeat instability, proliferating HT1080-(CAG)850 cells producing rCAG transcript. To be noted: 30 days; for % Contraction / % Expansion: cut-off ±25 repeats. Format: cell-based, human. On the procedure: The construction of the HT1080-(CAG)850 cell model was described previously (Sathasivam et al., 1997, Hum. Genet., 99:692-5). Briefly, HT1080 (ATCC) human fibrosarcoma cells were co-transfected with a plasmid (LC15-R) containing 800-850 (CTG)●(CAG) repeats (Nakatani et al., 2005, Nat. Chem. Biol., 1:39-43) and a plasmid encoding PhiC31 integrase. Transfection was performed with a Nucleofector (Lonza, Basel, Switzerland), and stably transfected clones were selected with puromycin. […] The HT1080-non-transcribing (CAG)850 cell model was established by transfecting a plasmid modified from pLC16 by inserting an additional SV40 polyadenylation signal downstream of the repeats (in addition to the original polyadenylation signals located upstream of the repeats), so that CAG/CTG repeats are floxed by transcription-terminator elements. The AttB-PhiC31 system has been widely used for single copy integration. […] The HT1080 model cells and an HD primary fibroblast cell line, GM09197 (Coriell Biorepository) with a large expanded allele of 180 CAG repeats and a non-expanded allele of 23 repeats (Sathasivam et al., 1997, Hum. Genet., 99:[…]), the HD primary fibroblast cell line, GM02191 (Coreill Biorepository) with an expanded allele of 43 CAG repeats and a non-expanded allele of 19 repeats, were cultured at 37° C. with 5% CO2 in Dulbecco's modified Eagle's medium supplemented with 10% fetal bovine serum and 1% penicillin/streptomycin. Cells were treated with or without continuous exposure to 50-μM NA for 30 days (HT1080 cells) or for 40 days (fibroblast cells). For experiments on non-proliferating cells, HT1080 cells were grown to confluence and then treated for the same period. WST-1 assay was performed according to the manufacturer's instructions (Roche, Basel, Switzerland). All cell lines were tested to be free of Mycoplasma. Three biological replicates were performed for each experiment.
Genomic DNA was extracted from HT1080-(CAG)850 clones and HD primary fibroblasts using the Gentra Puregene Cell Kit (Qiagen, Valencia, Calif.). The expanded (CTG)●(CAG) repeats were sized by small-pool PCR (sp-PCR) followed by Southern blot as described previously (Sathasivam et al., 1997, Hum. Genet., 99:692-5). For HT1080 models, small-pool PCR (spPCR) was performed with the input of 1.4-1.7 genome equivalents. The repeat size difference in the models is, at most, 3000 base-pairs, therefore, being strictly conservative, a bias toward amplifying the shorter allele can be possible, even under optimized PCR conditions described herein. For HD primary fibroblasts, sp-PCR & Southern blots were performed as described previously with slight modifications (Tome et al., 2013, PLoS Genet., 9:e1003280). Briefly, the PCR primers listed in Table 1 were used, and blots were hybridized with a DIG-labeled (CAG)7 locked nucleic acid probe (Nakamori et al. 2009, Neuromuscul. Disord., 19:759-62). At least 50 alleles were analyzed for each of the three experiments (more than 150 alleles for a total study). Repeat analyses are summarized in Table 2, compiled from complete small-pool-PCR datasets for each repetition of each experiment. For the histograms in FIGS. 4D, 4E, 10, 11, 5B, 5D, 5E, 14 and 15B, the Y-axis, “% of repeat population” was calculated by determining the proportion of >50 individual small-pool PCR reactions across the CAG repeat tract, that harbored a certain size of repeat product with a certain length. Cell clones were grown 30 or 40 days with or without NA (see, for example, Sathasivam et al., 1997, Hum. Genet., 99:692-5). Specifically, the histograms of repeat length distributions were from at least two different cell clones. Length distributions were determined as follows: Small-pool PCR followed by Southern blot for analysis of CAG/CTG repeat length.

The next assay has as its system single G-T mismatch. Briefly: in vitro repair assay by HeLa cell extracts, G-T mismatch. Format: biochemical, human. The source says:
Panel A of […] is a schematic of the in vitro repair assay. Starting DNAs and repair products released the repeat-containing fragment, which is resolved on PAGE and assessed on a molar level by Southern blotting and densitometry. Repair of different DNA substrates containing a long (CAG)20 slip-out (Panel B of FIG. 3) long (CTG)20 slip-out (Panel C of FIG. 3), a single CAG slip-out (Panel D of FIG. 3) or a single G-T mismatch (Panel E of FIG. 3), in the absence or in the presence of NA. Slipped-DNA substrates were prepared from hybrids of (CAG)50●(CTG)30, (CAG)30●(CTG)50 or of (CAG)50●(CTG)49. Repair of the G-T mismatch reconstitutes a HindIII restriction site, as shown schematically. Graphs show percentage repair efficiencies to repaired product relative to all repeat-containing fragments in the lane, values are normalized to the NA-free efficiency. […]
To determine how the binding of NA to slipped DNA structures affects repair, a series of circular slipped heteroduplex substrates was made with an excess of repeats with a nick located either 5′ or 3′ of the slip-out (FIG. 3). […] All these substrates were processed in […] by HeLa extracts and then were assessed for repair. Repair products were analyzed by Southern blotting, probed for the repeat-containing fragment, and compared with starting material, which permitted quantitative assessment of repair efficiency at a molar level. […]

Setting [1] is: 50 uM NA, Total of 3 experiments.
[2] abbreviates: 50 uM NA, single experiments Ex 1-3.

Turning to naphthyridine-azaquinolone, the “magnitude of repeat units lost (greatest)” value in the assay on HT1080-(CAG)850 cells (50 μM NA) is reported as not above 790 repeats. Moreover, in the assay with HT1080-(CAG)850 cells (setting [1]), the “% Unchanged” value turned out to be 26.7%, the “% Contraction” value is recorded as 59.4% and the “% Expansion” value is reported as 13.9%. For the same substance, the “Average Change of Repeat Size” value in the assay on HT1080-(CAG)850 cells (50 uM NA, Total of 3 experiments, all alleles) is on record as −125.7 number of repeats. In the assay with HT1080-(CAG)850 cells (setting [2]), the “% Unchanged” value is 28.4% and 27.4% and 23.7%; the “% Contraction” value is 56.8% and 60.0% and 61.0%; the “% Expansion” value is 14.8% and 11.3% and 15.2%. The “effect on G-T mismatch repair” value with single G-T mismatch is given as “no effect”.
